Reference: ChEMBL document CHEMBL1201862, “PubChem BioAssay data set” (2004)
Active and inactive are the calls of the source.

Legend:
[1] = target: Glycogen synthase kinase-3 alpha (Homo sapiens, UniProt P49840); format: functional;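 further: GSK3A result taken from a broad kinome-wide kinase panel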
[2] = target: Cell division cycle 7-related protein kinase (Homo sapiens, UniProt O00311); format: functional;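 further: value obtained from a kinome-wide kinase panel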
[3] = target: Tyrosine-protein kinase Blk (Homo sapiens, UniProt P51451); format: functional;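 further: obtained as one member of a kinome-wide kinase assay panel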
[4] = target: SRSF protein kinase 1 (Homo sapiens, UniProt Q96SB4); format: functional;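 further: measured as one member of a kinome-wide kinase profiling panel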
[5] = target: Serine/threonine-protein kinase Nek4 (Homo sapiens, UniProt P51957); format: functional
[6] = target: Protein kinase C gamma type (Homo sapiens, UniProt P05129); format: functional
[7] = target: Dual specificity protein kinase CLK4 (Homo sapiens, UniProt Q9HAZ1); format: functional
[8] = target: Serine/threonine-protein kinase pim-3 (Homo sapiens, UniProt Q86V86); format: functional;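 further: value obtained as one member of a broad kinase panel profiling effort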
[9] = target: Tyrosine-protein kinase JAK2 (Homo sapiens, UniProt O60674); format: functional;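 further: JAK2 tested as one member of a kinase panel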
[10] = target: Protein kinase C iota type (Homo sapiens, UniProt P41743); format: functional;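 further: measured within a kinome-wide kinase panel, PRKCI as panel member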
[11] = target: Tyrosine-protein kinase FRK (Homo sapiens, UniProt P42685); format: functional;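 further: FRK tested as one member of a kinome panel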
[12] = target: Tyrosine-protein kinase Lck (Homo sapiens, UniProt P06239); format: functional;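 further: lck was assayed as one member of a kinase panel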
[13] = target: Serine/threonine-protein kinase 3 (Homo sapiens, UniProt Q13188); format: functional;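 further: measured as one member of a kinome-wide kinase panel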
[14] = target: Lymphokine-activated killer T-cell-originated protein kinase (Homo sapiens, UniProt Q96KB5); format: functional;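 further: value comes from a kinase panel screen in which TOPK was one of the panel members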
[15] = target: Platelet-derived growth factor receptor alpha (Homo sapiens, UniProt P16234); assay: Navigating the Kinome. Panel member name: PDGFRA; format: functional
[16] = target: Cyclin-dependent kinase 1 (Homo sapiens, UniProt P06493); format: functional;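 further: Kinome-wide panel profiling, with the target listed as panel member CDC2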
[17] = target: Tyrosine-protein kinase JAK3 (Homo sapiens, UniProt P52333); format: functional
[18] = target: Serine/threonine-protein kinase Chk2 (Homo sapiens, UniProt O96017); format: functional;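 further: CHEK2 entry within a kinome-wide screening panel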
[19] = target: Mitogen-activated protein kinase 12 (Homo sapiens, UniProt P53778); format: functional;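 further: measured as one member of a kinome-wide kinase profiling panel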
[20] = target: Maternal embryonic leucine zipper kinase (Homo sapiens, UniProt Q14680); format: functional
[21] = target: Phosphorylase b kinase gamma catalytic chain, liver/testis isoform (Homo sapiens, UniProt P15735); format: functional;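 further: PHKG2 measured as one member of a kinome-wide kinase panel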
[22] = target: Calcium/calmodulin-dependent protein kinase type II subunit gamma (Homo sapiens, UniProt Q13555); format: functional
[23] = target: Cyclin-dependent kinase 8 (Homo sapiens, UniProt P49336); assay: Navigating the Kinome. Panel member name: CDK8; format: functional
[24] = target: Serine/threonine-protein kinase DCLK1 (Homo sapiens, UniProt O15075); format: functional;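 further: affinity for DCLK1 (listed as DCAMKL1) measured as one member of a kinome-wide kinase profiling panel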
[25] = target: Leukocyte tyrosine kinase receptor (Homo sapiens, UniProt P29376); assay: Navigating the Kinome. Panel member name: LTK; format: functional
[26] = target: Insulin-like growth factor 1 receptor (Homo sapiens, UniProt P08069); assay: Navigating the Kinome. Panel member name: IGF1R; format: functional
[27] = target: cGMP-dependent protein kinase 1 (Homo sapiens, UniProt Q13976); format: functional;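 further: value from a kinome panel screen with PRKG1 as the panel member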
[28] = target: Proto-oncogene tyrosine-protein kinase Src (Homo sapiens, UniProt P12931); format: functional;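 further: SRC entry within a kinome-wide kinase profiling panel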
[29] = target: Receptor-type tyrosine-protein kinase FLT3 (Homo sapiens, UniProt P36888); format: functional;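 further: FLT3 was tested as one member of a kinome-wide kinase panel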
[30] = target: Insulin receptor (Homo sapiens, UniProt P06213); format: functional;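 further: insulin receptor kinase tested as one member of a kinome-wide kinase panel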
[31] = target: Dual specificity mitogen-activated protein kinase kinase 1 (Homo sapiens, UniProt Q02750); assay: Navigating the Kinome. Panel member name: MAP2K1; format: functional
[32] = target: Serine/threonine-protein kinase PLK1 (Homo sapiens, UniProt P53350); format: functional;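 further: PLK1 measured as one member of a kinome-wide profiling panel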
[33] = target: Rho-associated protein kinase 1 (Homo sapiens, UniProt Q13464); format: functional;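 further: measured within a broad kinome-wide panel profiling many kinases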
[34] = target: Serine/threonine-protein kinase PLK4 (Homo sapiens, UniProt O00444); format: functional;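 further: PLK4 measured as one member of a kinome-wide kinase profiling panel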
[35] = target: Calcium/calmodulin-dependent protein kinase type II subunit delta (Homo sapiens, UniProt Q13557); format: functional
[36] = target: Cyclin-dependent kinase 2 (Homo sapiens, UniProt P24941); format: functional;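 further: CDK2 measured as one member of a broad kinome profiling panel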
[37] = target: Serine/threonine-protein kinase TAO1 (Homo sapiens, UniProt Q7L7X3); format: functional
[38] = target: Casein kinase I isoform alpha (Homo sapiens, UniProt P48729); format: functional
[39] = decrease of insulin promoter-GFP reporter – imaging, high-content screening, mouse beta cells (AID 1628); format: functional; conditions: MIN6
[40] = target: Induced myeloid leukemia cell differentiation protein Mcl-1 (Homo sapiens, UniProt Q07820); format: functional
[41] = system: HEK293; assay: Fluorescence-based counterscreen for potentiators or agonists of NPY-Y1: cell-based high-throughput dose response assay for inhibitors of cyclic nucleotide gated ion channel (CNGC) activity. In this assay, the parental HEK293 cell line transfected with a cyclic-nucleotide gated ion channel (CNGC)-based cAMP sensor is used to measure inhibition of isoproterenol-induced CNGC …; format: functional; conditions: Homo sapiens
[42] = MIN6 cell viability loss – mouse insulinoma, cytotoxicity control, dose response (AID 2122); format: functional;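 further: confirmatory high-throughput counterscreen run to flag cytotoxic compounds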
[43] = target: T1, Protein Tat (Human immunodeficiency virus type 1 group M subtype B (isolate HXB2)(HIV-1), UniProt P04608); format: functional;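 further: tat binding to TAR RNA read out by fluorescence polarization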
T1 sequence (P04608 whole entry): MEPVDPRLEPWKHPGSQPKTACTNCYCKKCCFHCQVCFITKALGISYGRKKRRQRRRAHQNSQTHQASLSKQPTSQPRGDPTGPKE

[44] = system: Vero; assay: viability of Vero cells under compound – cytotoxicity control for flavivirus capping enzyme inhibitors (AID 588742); format: functional; conditions: Chlorocebus sabaeus
[45] = target: Nonstructural protein 1 (Influenza A virus, UniProt Q194T2); format: functional, Influenza A virus (A/California/07/2009(H1N1))
[46] = target: Mitochondrial peptide methionine sulfoxide reductase (Bos taurus, UniProt P54149); assay: Absorbance-based biochemical high throughput dose response assay for activators of Methionine sulfoxide reductase A (MsrA).; format: functional

Casein kinase I isoform alpha, sequence (P48729 whole entry, canonical isoform): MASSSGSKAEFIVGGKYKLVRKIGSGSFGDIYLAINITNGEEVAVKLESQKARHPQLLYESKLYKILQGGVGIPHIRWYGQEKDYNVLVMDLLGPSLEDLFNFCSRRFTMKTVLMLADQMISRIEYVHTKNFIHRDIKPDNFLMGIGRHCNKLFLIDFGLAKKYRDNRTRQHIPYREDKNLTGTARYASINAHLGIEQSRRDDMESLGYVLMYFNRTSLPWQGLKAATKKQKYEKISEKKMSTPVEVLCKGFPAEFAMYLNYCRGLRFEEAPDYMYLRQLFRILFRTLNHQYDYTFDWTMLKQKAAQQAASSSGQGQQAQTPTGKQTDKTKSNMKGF
Serine/threonine-protein kinase PLK4, sequence (O00444 whole entry): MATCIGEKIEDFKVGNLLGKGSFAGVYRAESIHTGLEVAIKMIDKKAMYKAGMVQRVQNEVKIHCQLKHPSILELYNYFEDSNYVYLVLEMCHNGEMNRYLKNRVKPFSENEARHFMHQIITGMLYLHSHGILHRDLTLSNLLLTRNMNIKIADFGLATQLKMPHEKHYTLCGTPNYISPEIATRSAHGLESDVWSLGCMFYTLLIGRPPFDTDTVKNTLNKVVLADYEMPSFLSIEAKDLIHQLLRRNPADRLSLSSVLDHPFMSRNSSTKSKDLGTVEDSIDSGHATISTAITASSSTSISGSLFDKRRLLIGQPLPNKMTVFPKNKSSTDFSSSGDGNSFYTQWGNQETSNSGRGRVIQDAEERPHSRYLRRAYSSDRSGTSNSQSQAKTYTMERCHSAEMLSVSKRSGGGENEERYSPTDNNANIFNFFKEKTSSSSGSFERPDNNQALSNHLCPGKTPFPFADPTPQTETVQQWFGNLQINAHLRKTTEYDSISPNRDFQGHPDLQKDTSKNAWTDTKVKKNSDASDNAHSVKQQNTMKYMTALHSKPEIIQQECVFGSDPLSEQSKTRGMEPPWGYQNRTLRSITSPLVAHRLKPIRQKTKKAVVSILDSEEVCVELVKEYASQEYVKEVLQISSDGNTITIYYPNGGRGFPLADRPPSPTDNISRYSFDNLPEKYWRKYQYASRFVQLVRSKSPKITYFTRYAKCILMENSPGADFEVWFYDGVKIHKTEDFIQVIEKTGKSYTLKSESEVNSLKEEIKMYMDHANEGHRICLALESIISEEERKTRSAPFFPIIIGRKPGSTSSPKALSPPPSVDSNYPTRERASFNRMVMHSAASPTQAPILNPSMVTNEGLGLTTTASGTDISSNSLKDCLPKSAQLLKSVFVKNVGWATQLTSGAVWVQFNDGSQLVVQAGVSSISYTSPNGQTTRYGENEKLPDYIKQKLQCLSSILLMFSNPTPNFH
Insulin-like growth factor 1 receptor, sequence (P08069 31-736 limits assumed): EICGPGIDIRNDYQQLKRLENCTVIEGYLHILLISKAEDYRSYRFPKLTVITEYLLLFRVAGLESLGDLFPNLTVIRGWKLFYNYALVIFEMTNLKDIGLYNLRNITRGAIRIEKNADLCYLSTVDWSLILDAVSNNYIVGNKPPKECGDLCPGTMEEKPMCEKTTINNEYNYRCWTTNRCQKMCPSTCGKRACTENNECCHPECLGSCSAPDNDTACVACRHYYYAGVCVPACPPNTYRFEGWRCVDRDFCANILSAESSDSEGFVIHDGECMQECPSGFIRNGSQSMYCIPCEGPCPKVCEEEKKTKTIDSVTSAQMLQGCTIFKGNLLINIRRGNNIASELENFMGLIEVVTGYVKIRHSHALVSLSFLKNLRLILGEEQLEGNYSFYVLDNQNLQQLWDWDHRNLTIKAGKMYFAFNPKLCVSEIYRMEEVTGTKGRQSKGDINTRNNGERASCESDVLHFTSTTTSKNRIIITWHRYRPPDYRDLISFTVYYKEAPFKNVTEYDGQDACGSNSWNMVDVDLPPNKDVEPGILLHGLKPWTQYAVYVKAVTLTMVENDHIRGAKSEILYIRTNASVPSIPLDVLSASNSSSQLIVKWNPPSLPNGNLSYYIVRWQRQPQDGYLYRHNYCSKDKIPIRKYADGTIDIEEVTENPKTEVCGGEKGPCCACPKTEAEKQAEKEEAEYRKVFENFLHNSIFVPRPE
Insulin-like growth factor 1 receptor, sequence (P08069 741-1367 limits assumed): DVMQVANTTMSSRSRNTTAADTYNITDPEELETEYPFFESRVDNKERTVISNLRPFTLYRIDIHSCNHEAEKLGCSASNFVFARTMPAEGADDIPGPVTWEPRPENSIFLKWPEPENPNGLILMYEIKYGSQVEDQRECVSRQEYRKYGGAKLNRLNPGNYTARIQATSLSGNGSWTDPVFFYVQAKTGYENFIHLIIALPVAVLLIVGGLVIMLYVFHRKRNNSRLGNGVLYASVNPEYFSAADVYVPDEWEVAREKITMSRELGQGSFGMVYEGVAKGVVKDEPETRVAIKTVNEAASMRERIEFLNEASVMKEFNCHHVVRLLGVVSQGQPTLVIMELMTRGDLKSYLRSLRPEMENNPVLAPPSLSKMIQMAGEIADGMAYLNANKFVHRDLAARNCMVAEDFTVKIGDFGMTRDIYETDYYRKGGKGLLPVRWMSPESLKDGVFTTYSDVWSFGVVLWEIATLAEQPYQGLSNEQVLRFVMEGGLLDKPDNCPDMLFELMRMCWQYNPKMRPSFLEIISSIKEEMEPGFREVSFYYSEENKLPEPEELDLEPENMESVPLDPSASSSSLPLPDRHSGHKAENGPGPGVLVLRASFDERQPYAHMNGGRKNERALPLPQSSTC
Nonstructural protein 1, sequence (Q194T2 whole entry): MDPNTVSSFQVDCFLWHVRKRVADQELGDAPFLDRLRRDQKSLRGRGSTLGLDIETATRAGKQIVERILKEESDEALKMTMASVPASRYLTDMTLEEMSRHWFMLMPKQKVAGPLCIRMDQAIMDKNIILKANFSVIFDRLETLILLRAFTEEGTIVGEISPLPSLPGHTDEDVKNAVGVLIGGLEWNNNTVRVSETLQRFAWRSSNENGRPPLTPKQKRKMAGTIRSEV
Receptor-type tyrosine-protein kinase FLT3, sequence (P36888 whole entry): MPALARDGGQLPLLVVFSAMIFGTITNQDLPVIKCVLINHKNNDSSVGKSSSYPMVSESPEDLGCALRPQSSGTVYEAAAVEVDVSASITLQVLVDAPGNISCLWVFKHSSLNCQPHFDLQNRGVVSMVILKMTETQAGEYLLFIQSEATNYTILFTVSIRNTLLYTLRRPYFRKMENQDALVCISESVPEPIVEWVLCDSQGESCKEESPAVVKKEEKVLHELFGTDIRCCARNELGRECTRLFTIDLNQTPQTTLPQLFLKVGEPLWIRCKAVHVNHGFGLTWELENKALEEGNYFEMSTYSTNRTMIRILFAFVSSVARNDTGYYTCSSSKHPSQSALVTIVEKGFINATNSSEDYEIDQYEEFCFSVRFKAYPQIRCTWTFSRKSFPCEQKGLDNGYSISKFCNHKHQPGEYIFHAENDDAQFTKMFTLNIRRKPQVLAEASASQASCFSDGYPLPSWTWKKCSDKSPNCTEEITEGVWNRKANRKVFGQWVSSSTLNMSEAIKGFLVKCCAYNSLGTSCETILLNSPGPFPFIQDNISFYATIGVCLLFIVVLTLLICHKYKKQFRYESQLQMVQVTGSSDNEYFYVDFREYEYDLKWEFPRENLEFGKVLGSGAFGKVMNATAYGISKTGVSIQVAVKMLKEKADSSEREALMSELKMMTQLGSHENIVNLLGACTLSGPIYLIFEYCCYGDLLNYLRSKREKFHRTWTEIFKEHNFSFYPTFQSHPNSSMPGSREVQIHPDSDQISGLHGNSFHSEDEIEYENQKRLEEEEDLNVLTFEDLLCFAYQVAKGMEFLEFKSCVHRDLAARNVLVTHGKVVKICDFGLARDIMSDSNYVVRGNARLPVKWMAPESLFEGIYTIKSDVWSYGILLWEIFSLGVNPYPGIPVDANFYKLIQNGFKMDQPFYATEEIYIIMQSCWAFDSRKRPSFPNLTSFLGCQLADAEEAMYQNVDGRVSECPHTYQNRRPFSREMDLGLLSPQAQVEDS
cGMP-dependent protein kinase 1, sequence (Q13976 whole entry): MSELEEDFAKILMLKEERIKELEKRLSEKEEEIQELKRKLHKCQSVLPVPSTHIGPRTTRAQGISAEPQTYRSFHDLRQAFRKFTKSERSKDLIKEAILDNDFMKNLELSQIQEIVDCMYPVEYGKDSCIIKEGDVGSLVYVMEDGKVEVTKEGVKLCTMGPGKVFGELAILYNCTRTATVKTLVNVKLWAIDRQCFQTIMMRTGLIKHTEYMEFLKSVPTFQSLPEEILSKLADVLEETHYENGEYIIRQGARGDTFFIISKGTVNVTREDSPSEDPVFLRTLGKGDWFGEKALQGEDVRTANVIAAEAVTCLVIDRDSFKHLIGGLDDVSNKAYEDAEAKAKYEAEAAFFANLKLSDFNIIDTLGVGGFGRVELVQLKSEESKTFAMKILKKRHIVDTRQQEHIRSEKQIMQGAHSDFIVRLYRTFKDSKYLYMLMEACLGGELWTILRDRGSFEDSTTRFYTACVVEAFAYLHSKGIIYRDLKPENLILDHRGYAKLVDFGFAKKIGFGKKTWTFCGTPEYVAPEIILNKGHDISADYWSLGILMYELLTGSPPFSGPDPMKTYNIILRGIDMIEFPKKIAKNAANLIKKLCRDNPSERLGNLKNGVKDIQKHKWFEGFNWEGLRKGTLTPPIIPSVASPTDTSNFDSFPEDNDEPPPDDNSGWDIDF
Tyrosine-protein kinase Lck, sequence (P06239 whole entry): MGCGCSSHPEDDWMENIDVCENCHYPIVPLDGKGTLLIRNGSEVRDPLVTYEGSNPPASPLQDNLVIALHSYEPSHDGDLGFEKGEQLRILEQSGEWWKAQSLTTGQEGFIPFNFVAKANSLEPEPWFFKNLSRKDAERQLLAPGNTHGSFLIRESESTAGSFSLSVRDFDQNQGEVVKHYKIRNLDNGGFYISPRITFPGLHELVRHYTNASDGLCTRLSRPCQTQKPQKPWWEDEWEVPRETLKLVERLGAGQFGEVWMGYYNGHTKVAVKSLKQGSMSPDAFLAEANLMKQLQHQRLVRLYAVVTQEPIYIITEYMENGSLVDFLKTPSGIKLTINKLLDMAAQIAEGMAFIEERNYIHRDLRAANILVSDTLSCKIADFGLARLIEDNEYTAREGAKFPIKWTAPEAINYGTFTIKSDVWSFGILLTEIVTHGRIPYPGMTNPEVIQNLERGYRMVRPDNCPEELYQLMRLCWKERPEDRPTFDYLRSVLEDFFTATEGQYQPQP

OC1CCC(Nc2cc(Cl)nc(-c3c[nH]c4ncccc34)n2)CC1 (stereo unspecified)
active: Ki [1] 0.0316 µM | Ki [2] 0.001 µM | Ki [5] 0.794 µM | Ki [6] 0.251 µM | Ki [7] 0.02 µM | Ki [8] 1.26 µM | Ki [9] 0.158 µM | Ki [10] 0.398 µM | Ki [11] 1 µM | Ki [13] 0.0501 µM | Ki [14] 3.98 µM | Ki [16] 1 µM | Ki [17] 0.2 µM | Ki [18] 0.398 µM | Ki [19] 1.58 µM | Ki [20] 0.2 µM | Ki [22] 0.794 µM | Ki [23] 0.501 µM | Ki [29] 1 µM | Ki [31] 0.0316 µM | Ki [33] 0.0316 µM | Ki [36] 0.251 µM | Ki [37] 2.51 µM
inactive: Ki [3] > 0.794 µM | Ki [4] > 7.94 µM | Ki [12] > 3.16 µM | Ki [15] > 1.58 µM | Ki [21] > 5.01 µM | Ki [24] > 10 µM | Ki [25] > 2.51 µM | Ki [26] > 2 µM | Ki [27] > 1.26 µM | Ki [28] > 2 µM | Ki [30] > 3.98 µM | Ki [32] > 5.01 µM | Ki [34] > 2.51 µM | Ki [35] > 1.58 µM | Ki [38] > 2.51 µM

COCC/N=c1\scc(-c2cccs2)n1/N=C/c1ccc(O)c(O)c1O
active: IC50 [40] 5.17 µM | CC50 [44] 22.8 µM | IC50 [45] 42.9 µM
inactive: IC50 [39] > 16 µM | IC50 [42] > 16 µM
> 11.8 µM (not active): IC50 [41]
inconclusive: IC50 [43] > 100 µM

O=C(COC(=O)c1ccc([N+](=O)[O-])s1)NCCc1ccccc1
inactive: EC50 [46] 22.1 µM
